In brackets after ≈: the same amount, converted by molar mass. Like-named read-outs stand apart in the source and are kept apart here.
Legend:
Drug solubility = format: physicochemical

In the case of `Cc1ccc(-c2cc(C(F)(F)F)nn2-c2ccc(S(N)(=O)=O)cc2)cc1` [Drug 1, 4-[5-(4-methylphenyl)-3-(trifluoromethyl)-1H-pyrazol-1-yl]benzenesulfonamide], the solubility (Drug solubility; MFD solution, read-out: solubility in MFD solution) is reported as ~40 µg/mL (≈ 105 µM).
In the case of `CCOC(=O)N1c2ccc(C(F)(F)F)cc2[C@@H](N(Cc2cc(C(F)(F)F)cc(C(F)(F)F)c2)C(=O)OC)C[C@H]1CC` [Drug 2, [2R,4S]4-[(3,5-bis-trifluoromethyl-benzyl)-methoxycarbonyl-amino]-2-ethyl-6-trifluoromethyl-3,4-dihydro-2H-quinoline-1-carboxylic acid ethyl ester], the solubility (Drug solubility; water, read-out: solubility in water) is reported as < 0.1 µg/mL.
With Ethylcellulose the “amount of polymer soluble at pH 6.5” value was “less than 0.001 mg/mL”.

From patent publication US9724362B2, “Pharmaceutical compositions comprising nanoparticles and a resuspending material” (Bend Research, Inc., priority 2007, dated 2017)
